Source: US20140163082A1, “PYRAZOLYL COMPOUNDS FOR USE IN REVERSING REACTIVE GLIOSIS” (priority 2011, published 2014)

Legend:
rMC-1 cells = test: Viability assay (DAPI exclusion test), rMC-1; conditions: rMC-1 cells in culture after incubation
R28 cells = test: Viability assay (DAPI exclusion test), R28; conditions: R28 cells in culture after incubation

**Q.** How did the “cell viability (DAPI exclusion)” value (rMC-1 cells) turn out when `COc1cccc2c1C(=O)c1c(O)c3c(c(O)c1C2=O)C[C@@](O)(C(=O)CO)C[C@@H]3O[C@H]1C[C@H](N)[C@H](O)[C@H](C)O1` [Doxorubicin] was run?
**A.** The value was “significant nonviability staining”.

**Q.** What about the “cell viability (DAPI exclusion)” value (R28 cells) of the same compound?
**A.** Its value is “significant nonviability staining”.
